Inhibition data for 1 compound are collected here from paper PMC7180948, “New Insights into 4-Anilinoquinazolines as Inhibitors of Cardiac Troponin I–Interacting Kinase (TNNi3K)” (Molecules, 2020).

Holding throughout (experiment): biochemical
Holding throughout (parameters): KINOMEscan competition binding panel (Eurofins DiscoverX), single concentration, percent inhibition
What all share (conditions): read-out: 15 at 1 µM % inhibition

In one assay the target is T1, MST3 (Homo sapiens, UniProt Q9Y6E0).
T1 construct: gene STK24
The method, boiled down: (§1)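 Compounds were submitted at 1 µM to a KINOMEscan assay covering more than 400 human kinases. The screen served to define the selectivity profile.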

Another assay has as its target T2, MEK1 (Homo sapiens, UniProt Q02750).
T2 construct: gene MAP2K1
The method, boiled down: as §1

Assay [1] deals with T3, ABL1(H396P)-phosphorylated (Homo sapiens, UniProt P00519, H396P).
T3 construct: phosphorylated
The method, boiled down: as §1

For another assay, the target named is ERBB4 (Homo sapiens, UniProt Q15303). In a few lines: as §1
Assay [2] concerns the target T4, ABL1(F317I)-nonphosphorylated (Homo sapiens, UniProt P00519, F317I).
T4 construct: nonphosphorylated
The method, boiled down: as §1

A further assay addresses PIK3C2B (Homo sapiens, UniProt O00750). In a few lines:
as §1

Another assay addresses CSF1R (Homo sapiens, UniProt P07333). The method, boiled down: as §1
The next assay has as its target T5, AMPK-alpha2 (Homo sapiens, UniProt P54646).
T5 construct: gene PRKAA2
In a few lines: as §1

The next assay deals with CDKL3 (Homo sapiens, UniProt Q8IVW4). The method, boiled down: as §1
Sequence of CDKL3 (Q8IVW4 whole entry): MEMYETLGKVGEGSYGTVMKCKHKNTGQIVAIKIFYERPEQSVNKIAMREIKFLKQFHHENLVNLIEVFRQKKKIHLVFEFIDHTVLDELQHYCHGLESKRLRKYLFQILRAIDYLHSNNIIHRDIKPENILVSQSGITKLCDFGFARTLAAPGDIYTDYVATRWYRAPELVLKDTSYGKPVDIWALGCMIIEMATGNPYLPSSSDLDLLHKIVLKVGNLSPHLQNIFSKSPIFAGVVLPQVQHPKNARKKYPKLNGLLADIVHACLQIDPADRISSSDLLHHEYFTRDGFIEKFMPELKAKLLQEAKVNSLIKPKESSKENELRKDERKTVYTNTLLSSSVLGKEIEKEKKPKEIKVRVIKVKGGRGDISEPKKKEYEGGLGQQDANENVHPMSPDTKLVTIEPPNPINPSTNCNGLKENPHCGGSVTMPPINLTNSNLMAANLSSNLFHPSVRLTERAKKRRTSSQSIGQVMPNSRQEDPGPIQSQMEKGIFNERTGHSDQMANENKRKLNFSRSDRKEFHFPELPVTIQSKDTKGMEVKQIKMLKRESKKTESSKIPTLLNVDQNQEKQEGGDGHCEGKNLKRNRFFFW
Another assay addresses ACVR2B (Homo sapiens, UniProt Q13705). The method, boiled down: as §1
Another assay addresses T6, MST4 (Homo sapiens, UniProt Q9P289).
T6 construct: gene STK26
In a few lines: as §1

The target of a further assay is FER (Homo sapiens, UniProt P16591). The method, boiled down:
as §1

The target in a further assay is CDK2 (Homo sapiens, UniProt P24941). The method, boiled down: as §1
The next assay deals with MAP4K4 (Homo sapiens, UniProt O95819). In a few lines: as §1
A further assay deals with HASPIN (Homo sapiens, UniProt Q8TF76). In a few lines:
as §1

The target of another assay is T7, MEK2 (Homo sapiens, UniProt P36507).
T7 construct: gene MAP2K2
T7 sequence (P36507 whole entry): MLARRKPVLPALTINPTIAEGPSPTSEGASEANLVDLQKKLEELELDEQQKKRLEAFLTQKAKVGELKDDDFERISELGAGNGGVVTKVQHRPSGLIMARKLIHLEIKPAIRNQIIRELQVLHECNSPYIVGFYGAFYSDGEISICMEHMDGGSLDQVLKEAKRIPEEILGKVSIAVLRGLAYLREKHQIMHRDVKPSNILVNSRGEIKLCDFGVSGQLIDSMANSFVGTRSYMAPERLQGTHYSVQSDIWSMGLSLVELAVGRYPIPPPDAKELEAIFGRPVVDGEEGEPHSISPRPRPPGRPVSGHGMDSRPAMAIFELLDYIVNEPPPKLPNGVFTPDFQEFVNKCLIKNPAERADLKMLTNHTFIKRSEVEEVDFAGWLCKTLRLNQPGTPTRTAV
In a few lines: as §1

The target in assay [3] is T8, ABL1(T315I)-nonphosphorylated (Homo sapiens, UniProt P00519, T315I).
T8 construct: nonphosphorylated
In a few lines:
as §1

Another assay addresses STK33 (Homo sapiens, UniProt Q9BYT3). The method, boiled down:
as §1

Assay [4] concerns the target T9, ABL1(M351T)-phosphorylated (Homo sapiens, UniProt P00519, M351T).
T9 construct: phosphorylated
The method, boiled down: as §1

A further assay addresses EPHA1 (Homo sapiens, UniProt P21709). In a few lines: as §1
Another assay has as its target DAPK3 (Homo sapiens, UniProt O43293). In a few lines: as §1
In the next assay the target is BLK (Homo sapiens, UniProt P51451). The method, boiled down: as §1
Sequence of BLK (P51451 whole entry): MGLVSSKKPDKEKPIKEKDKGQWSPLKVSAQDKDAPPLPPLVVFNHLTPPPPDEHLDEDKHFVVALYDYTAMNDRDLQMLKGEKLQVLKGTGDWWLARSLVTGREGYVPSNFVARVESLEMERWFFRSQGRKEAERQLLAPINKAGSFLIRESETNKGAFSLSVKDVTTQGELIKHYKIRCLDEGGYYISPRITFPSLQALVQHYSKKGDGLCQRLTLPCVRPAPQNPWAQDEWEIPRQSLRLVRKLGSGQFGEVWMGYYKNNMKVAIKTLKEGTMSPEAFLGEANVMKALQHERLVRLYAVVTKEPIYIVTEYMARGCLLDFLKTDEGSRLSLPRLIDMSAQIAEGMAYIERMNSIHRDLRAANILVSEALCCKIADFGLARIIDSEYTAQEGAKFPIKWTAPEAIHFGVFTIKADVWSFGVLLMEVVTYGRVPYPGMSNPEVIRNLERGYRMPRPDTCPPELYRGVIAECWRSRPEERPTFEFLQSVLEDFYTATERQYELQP
The target in another assay is T10, YES (Homo sapiens, UniProt P07947).
T10 construct: gene YES1
In a few lines: as §1

A further assay addresses TNIK (Homo sapiens, UniProt Q9UKE5). The method, boiled down: as §1

Sequence of TNIK (Q9UKE5 whole entry): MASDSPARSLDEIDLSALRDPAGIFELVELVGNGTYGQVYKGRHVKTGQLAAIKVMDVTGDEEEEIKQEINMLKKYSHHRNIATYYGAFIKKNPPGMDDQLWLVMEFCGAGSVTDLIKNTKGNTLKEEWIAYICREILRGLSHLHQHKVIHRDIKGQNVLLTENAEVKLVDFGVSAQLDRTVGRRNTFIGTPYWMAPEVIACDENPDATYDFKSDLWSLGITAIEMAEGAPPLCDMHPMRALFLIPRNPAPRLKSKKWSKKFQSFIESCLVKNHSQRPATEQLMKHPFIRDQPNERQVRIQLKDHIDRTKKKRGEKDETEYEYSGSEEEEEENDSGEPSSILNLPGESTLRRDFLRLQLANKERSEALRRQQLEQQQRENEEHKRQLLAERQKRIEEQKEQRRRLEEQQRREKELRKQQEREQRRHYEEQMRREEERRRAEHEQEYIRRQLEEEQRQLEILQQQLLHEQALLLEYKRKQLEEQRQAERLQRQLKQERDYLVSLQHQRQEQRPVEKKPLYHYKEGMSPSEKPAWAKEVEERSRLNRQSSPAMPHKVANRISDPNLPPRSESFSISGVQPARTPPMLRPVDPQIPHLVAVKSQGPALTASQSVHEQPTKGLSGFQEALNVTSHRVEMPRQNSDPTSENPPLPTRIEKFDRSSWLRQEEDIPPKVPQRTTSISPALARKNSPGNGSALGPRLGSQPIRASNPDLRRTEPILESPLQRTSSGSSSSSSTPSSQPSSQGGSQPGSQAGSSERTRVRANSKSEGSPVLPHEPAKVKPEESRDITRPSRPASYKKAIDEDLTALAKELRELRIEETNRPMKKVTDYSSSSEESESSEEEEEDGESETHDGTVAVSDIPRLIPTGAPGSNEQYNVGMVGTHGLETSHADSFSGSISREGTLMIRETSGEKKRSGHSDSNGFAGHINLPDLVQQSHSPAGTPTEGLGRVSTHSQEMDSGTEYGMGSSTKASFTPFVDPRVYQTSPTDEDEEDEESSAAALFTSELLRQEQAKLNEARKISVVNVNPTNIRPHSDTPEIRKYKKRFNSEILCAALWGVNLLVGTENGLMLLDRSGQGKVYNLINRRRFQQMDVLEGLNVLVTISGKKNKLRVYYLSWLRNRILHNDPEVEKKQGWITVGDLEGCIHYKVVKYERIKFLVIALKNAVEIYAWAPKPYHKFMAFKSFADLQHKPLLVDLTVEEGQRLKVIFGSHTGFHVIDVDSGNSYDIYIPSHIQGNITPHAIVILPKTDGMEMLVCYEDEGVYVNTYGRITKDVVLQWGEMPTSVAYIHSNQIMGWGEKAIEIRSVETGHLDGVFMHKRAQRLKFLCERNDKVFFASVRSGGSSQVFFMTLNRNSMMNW
Sequence of FER (P16591 whole entry): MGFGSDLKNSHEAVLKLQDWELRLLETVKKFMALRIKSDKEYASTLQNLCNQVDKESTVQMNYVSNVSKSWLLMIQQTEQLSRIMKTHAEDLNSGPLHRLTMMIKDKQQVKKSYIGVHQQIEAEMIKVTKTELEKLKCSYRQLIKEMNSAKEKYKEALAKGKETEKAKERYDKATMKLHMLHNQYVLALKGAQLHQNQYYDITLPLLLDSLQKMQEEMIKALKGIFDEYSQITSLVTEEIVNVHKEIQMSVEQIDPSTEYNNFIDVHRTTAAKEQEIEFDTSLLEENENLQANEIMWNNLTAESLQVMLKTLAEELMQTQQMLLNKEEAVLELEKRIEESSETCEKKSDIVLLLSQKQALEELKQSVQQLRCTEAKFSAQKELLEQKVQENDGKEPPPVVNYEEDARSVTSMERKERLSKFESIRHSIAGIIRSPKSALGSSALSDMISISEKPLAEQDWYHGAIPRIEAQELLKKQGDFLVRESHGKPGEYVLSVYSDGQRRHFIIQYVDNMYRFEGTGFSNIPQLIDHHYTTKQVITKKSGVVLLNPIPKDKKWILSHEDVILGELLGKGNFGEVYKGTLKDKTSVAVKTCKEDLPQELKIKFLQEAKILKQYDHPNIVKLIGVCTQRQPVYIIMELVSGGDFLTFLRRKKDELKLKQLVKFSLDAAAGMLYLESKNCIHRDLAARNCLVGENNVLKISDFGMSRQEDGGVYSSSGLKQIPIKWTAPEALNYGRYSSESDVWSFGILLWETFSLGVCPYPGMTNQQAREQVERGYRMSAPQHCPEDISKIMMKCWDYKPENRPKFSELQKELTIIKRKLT
Sequence of CSF1R (P07333 whole entry): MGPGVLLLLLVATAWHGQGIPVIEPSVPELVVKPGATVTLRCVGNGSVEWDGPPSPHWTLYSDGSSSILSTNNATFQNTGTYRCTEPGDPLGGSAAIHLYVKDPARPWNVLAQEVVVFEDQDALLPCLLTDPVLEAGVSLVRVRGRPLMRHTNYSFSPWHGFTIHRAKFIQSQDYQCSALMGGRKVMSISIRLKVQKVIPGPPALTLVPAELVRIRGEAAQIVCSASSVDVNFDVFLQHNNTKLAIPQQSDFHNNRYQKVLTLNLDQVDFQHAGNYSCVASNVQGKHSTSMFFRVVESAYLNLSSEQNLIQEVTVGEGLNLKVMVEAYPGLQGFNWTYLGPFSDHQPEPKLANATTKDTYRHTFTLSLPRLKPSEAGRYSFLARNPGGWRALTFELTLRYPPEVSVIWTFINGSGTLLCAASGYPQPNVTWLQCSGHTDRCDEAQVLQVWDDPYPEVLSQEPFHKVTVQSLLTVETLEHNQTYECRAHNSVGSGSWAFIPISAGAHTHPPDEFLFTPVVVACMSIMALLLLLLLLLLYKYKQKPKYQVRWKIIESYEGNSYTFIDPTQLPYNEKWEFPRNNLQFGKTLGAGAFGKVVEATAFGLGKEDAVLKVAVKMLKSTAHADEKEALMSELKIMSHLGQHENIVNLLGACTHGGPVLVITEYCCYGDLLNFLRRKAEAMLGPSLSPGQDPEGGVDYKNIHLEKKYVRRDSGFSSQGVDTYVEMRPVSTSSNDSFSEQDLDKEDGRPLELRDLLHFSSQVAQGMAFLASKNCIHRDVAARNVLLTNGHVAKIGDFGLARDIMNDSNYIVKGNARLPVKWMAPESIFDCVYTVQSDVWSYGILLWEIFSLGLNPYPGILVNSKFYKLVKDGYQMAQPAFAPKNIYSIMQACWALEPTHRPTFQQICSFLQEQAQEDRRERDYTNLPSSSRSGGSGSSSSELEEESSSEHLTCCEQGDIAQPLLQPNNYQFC
T2 sequence (Q02750 whole entry): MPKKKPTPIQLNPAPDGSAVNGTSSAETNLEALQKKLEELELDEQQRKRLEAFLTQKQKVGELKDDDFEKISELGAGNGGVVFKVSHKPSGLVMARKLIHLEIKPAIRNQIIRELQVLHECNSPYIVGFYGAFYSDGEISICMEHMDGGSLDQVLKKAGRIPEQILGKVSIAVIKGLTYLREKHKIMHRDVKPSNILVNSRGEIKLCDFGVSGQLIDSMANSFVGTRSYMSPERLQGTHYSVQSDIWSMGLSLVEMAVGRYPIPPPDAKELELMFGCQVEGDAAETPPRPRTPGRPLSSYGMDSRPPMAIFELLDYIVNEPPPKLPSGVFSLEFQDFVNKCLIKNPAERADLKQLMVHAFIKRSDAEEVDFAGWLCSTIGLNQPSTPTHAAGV

One may read the inhibition as the relative decrease from the control value, in per cent. In the case of `CNS(=O)(=O)c1ccc(N(C)C)c(Nc2nc(C)nc3cc(OC)c(OC)cc23)c1` [compound 15, 3-((6,7-dimethoxy-2-methylquinazolin-4-yl)amino)-4-(dimethylamino)-N-methylbenzenesulfonamide], the inhibition at 1 µM on MST3 was 0%; on MEK1, 18%; in assay [1], 0%; on ERBB4, 0%; in [2] it was 17%; on PIK3C2B it was 71%. For the same compound, the inhibition at 1 µM on CSF1R turned out to be 0%; on AMPK-alpha2 it was 2%; on CDKL3 it was 23%; at ACVR2B, 0%; on MST4, 13%; at FER it was 0%. The inhibition at 1 µM amounted to 0% at CDK2; 9% at MAP4K4; 0% at HASPIN; 10% on MEK2; 9% in assay [3]; 0% at STK33. For the same compound, the inhibition at 1 µM in assay [4] was found to be 0%; at EPHA1, 0%; on DAPK3 it was 0%; on BLK, 0%; on YES, 0%; on TNIK, 1%.
